Results published in patent publication EP0523085B1, “PEROXY ACID BLEACH PRECURSORS AND DETERGENT COMPOSITIONS CONTAINING THEM” (priority 1990, dated 1991).
Like-named read-outs stand apart in the source and are kept apart here.

Key:
[1] = water solubility at 10°C (saturated solution in distilled water); format: physicochemical
Experimental: For the purposes of the present invention the solubility of a precursor in water is defined as the weight of the compound that can be dissolved in 100ml distilled water at 10°C, expressed on a percentage basis. Precursors in accordance with the invention have water solubilities of at least 25% by weight, more preferably at least 50% and most preferably at least 75%.
The water solubility of this material was determined by cooling 2.3g distilled water to 10°C and adding the precursor until no further material would dissolve. A slight excess was then added and the temperature raised to 25°C to give complete solution before recooling to 10°C, ensuring that crystallisation of the precursor took place from a saturated solution.

[2] = perhydrolysis with sodium perborate tetrahydrate at 10°C, iodometric titration; details: for rates of perhydrolysis, comparison of the two precursors: each predissolved (KDAES in distilled water, TAED in dimethyl formamide); for time for dissolution and perhydrolysis to be substantially complete: precursor added in solid form, KDAES assumed to be 82% active
Experimental: A jacketed 1 litre glass vessel fitted with a magnetic stirrer was used to carry out the perhydrolysis and the temperature of the solution was controlled at 10°C by means of a Thermomix (RTM) cooling unit which was used to circulate the cooled water through a jacket around the perhydrolysis vessel
The value obtained for the blank was subtracted from the values obtained at the various time intervals to give the figure from which the percentage perhydrolysis was calculated.

Row | Molecule | solubility [1] | precursor perhydrolysed within 5 minutes ([2]; solid product, on the basis of a purity of 97.6%) | solubility ([1]; distilled water, 10°C) | amount of the precursor dissolved ([1]; in 2.3g distilled water at 10°C) | rates of perhydrolysis, comparison of the two precursors [2] | time for dissolution and perhydrolysis to be substantially complete [2]
1 | CC(=O)N(CCC[N+](C)(C)C)C(C)=O.[Br-] [DTAPB, N,N-diacetyl trimethylammonio propylamine bromide] | 75.6% | approx. 92% |  |  |  | 
2 | CC(=O)N(CCS(=O)(=O)[O-])C(C)=O.[K+] [KDAES, potassium N,N-diacetylaminoethane sulphonate] |  |  | 66.6% | 4.71 g | broadly similar | ≤ 5 min
3 | tetra acetyl ethylene diamine [TAED, reference compound] |  |  |  |  | broadly similar | at least 30 minutes
